{
  "source": "patent EP0812190B1",
  "about": "(priority 1993, dated 1995)",
  "key": {"[1]": {"system": "NMDA-induced cell death of cerebellum cells", "test": "cells", "description": "Procedures: Cultures of mechanically dissociated neonatal rat cerebellum. […] The cerebella are then dissociated after 20-25 passages through a sterile 13 gauge, 10 cm long stainless steel needle attached to a 5 ml syringe with an inserted 45 µm pore size nylon sieve. The dissociated cells are centrifuged at 200g for 5 minutes, the supernatant discarded and the cells resuspended in enriched medium. The cell viability is determined by the trypan blue exclusion test. […] After 4 days in culture, the media are replaced with media containing the desired test compounds. Experiments are done in duplicate and repeated 2 or 3 times. […] Nerve cell survival is evaluated by phase contrast microscopy and trypan blue staining after 24 h."}, "[2]": {"system": "maximal electroshock seizures", "test": "animal or person", "settings": "mice, 100 mg/kg", "description": "The MES test is a classical model to indicate efficacy for partial and generalized seizures in humans. […] Some agents, however, that prevent seizure spread have the side effect of lowering seizure threshold. These agents therefore have both proconvulsive and anticonvulsive side effects."}, "[3]": {"system": "haloperidol-induced catalepsy", "experimental": "(+)PAI mesylate, or racemic-PAI mesylate. All drugs were administered i.p. in a volume of 0.2 mL. Two hours later, haloperidol was injected s.c. at a dose of 6mg/kg in a volume of 0.1-0.2 mL. Motor coordination tests were made at 3 hours after giving haloperidol, that is, 5 hours after administering the presumed protective drugs.\nMotor coordination tests and rigidity were quantified according to three different parameters: (a) ability to walk the length of a horizontal rod, 80 cm-long; (b) ability co climb down, face down, a vertical rod, 80 cm-long; (c) duration of immobility in an unnatural sitting posture whereby the abdomen of the mouse is pressed against a \"wall.\" Full performance as in haloperidol-untreated mice is given the score of 4 in each test, or a total of 12 in all tests. Poor performance is given a score from 1 to 3."}, "[4]": {"system": "closed head injury", "settings": "24 h after trauma; 0.1 mg/kg i.p. at 0, 4, 8 and 12 h", "description": "(§1) Head trauma was induced in male rats under ether anesthesia by a well calibrated weight-drop device that falls over the exposed skull, covering the left cerebral hemisphere, 1-2 mm lateral to the midline, in the midcoronal plane.\n(§2) [R] (+)PAI Mesylate was dissolved in water. The rats were injected intraperitoneally at a dose of 0.1 mg/kg, 0, 4, 8 and 12 h after induction of head trauma. Control rats were treated with water at the same times."}, "[5]": {"system": "crush injury of the optic nerve", "description": "• a) General. […] At short terms, metabolic measurements were monitored in terms of the mitochondrial NADH/NAD ratio, which depends on the activity of the electron transport system, and thus indicate levels of energy production. Changes in ability of the nerve to produce energy as a consequence of injury were determined by comparing NADH levels in response to artificial transient anoxic insult before and after the injury. • b) Surface fluorometry - reflectometry. Monitoring of the intramitochondrial NADH redox state is based on the fact that NADH, unlike the oxidized form NAD^+, fluoresces when illuminated […]. A flexible Y-shaped bundle of optic fibers (light guide) was used to transmit the light to and from the optic nerve. […] Changes in the reflected light were correlated with changes in tissue absorption caused by hemodynamic effects and with movements of the optic nerve secondary to alterations in arterial blood pressure and nerve volume. […] Animal utilization was in accord with the ARVO Resolution on the use of animals in research. Male Sprague-Dawley (SPD) rats weighing 300-400g were anesthetized with sodium pentobarbitone (50 mg/kg intraperitoneally). With the animal's head held in place by a head holder, a lateral canthotomy was performed under a binocular operating microscope and the conjuctiva was incised lateral to the cornea."}, "[6]": {"system": "closed head injury", "settings": "0.1 mg/kg i.p. at 0, 4, 8 and 12 h after head trauma", "description": "as §1\nThese criteria, referred to as the Neurological Severity Score (NSS), consist of a series of reflexes and motor functions. Points are given based on deficits in these criteria. At 24h the rats were reevaluated.\nas §2"}, "[7]": {"system": "α-MpT-induced hypokinesia", "test": "Reversal of α-MpT-induced hypokinesia in rats", "format": "in vivo", "description": "The drug α-MpT is assumed to inhibit the formation of L-DOPA from tyrosine, and consequently the formation of dopamine itself. Lack of CNS dopamine is expressed as hypoactivity. Six month-old male Wistar rats (from Harlan Orkack, UK) were pretreated with saline, [R] […] Two hours later they received i.p. α-MpT at a dose of 100 mg/kg in 0.3-0.5 mL. Controls received saline. Following this, motor activity was recorded in a computerized activity cage for the duration of 10 hours. […] (+)PAI Mesylate at 2 mg/kg."}, "[8]": {"system": "neurological deficits", "settings": "mouse, in vivo, 300 mg/kg", "experimental": "TD50 (median toxic dose). This test measures neurological deficits by the rotorod ataxia test. A mouse is placed on a knurled rod rotating at 6 rpm. It is then determined whether a mouse has the ability to maintain its equilibrium and stay on the rod for one minute in each of three trials."}, "[9]": {"settings": "Rattus norvegicus, 24 h, read-out: Percent Protection"}, "[10]": {"settings": "Rattus norvegicus, 24 h, read-out: Surviving Cells"}},
  "note": "Like-named read-outs stand apart in the source and are kept apart here. Marks after values point to notes of the source that are not given here.",
  "data": [
    {"compound": "C#CCN[C@@H]1CCc2ccccc21.CS(=O)(=O)O", "note": "[[R](+)PAI Mesylate, R-(+)-N-propargyl-1-aminoindan mesylate]", "values": [
      {"measurement": "inhibition at 0.01 µM", "setting": "[1]; [9]", "value": 2, "unit": "%"},
      {"measurement": "inhibition at 10 µM", "setting": "[1]; [9]", "value": 27, "unit": "%"},
      {"measurement": "viability at 1 µM", "setting": "[1]; [10]", "value": 22, "unit": "%"},
      {"measurement": "viability at 10 µM", "setting": "[1]; [10]", "value": 37, "unit": "%"},
      {"measurement": "Percent Protection", "setting": "[1]; cerebellar cell cultures, 1440 min, 1 µM", "value": 12, "unit": "%"},
      {"measurement": "Surviving Cells", "setting": "[1]; rat, cerebellar cell cultures, 24 h, 0.01 µM", "value": "12% of untreated controls"},
      {"measurement": "mice protected", "setting": "[2]", "value": "one out of three"},
      {"measurement": "% of control", "setting": "[3]; 3.0 mg/kg i.p.", "value": 60, "unit": "%"},
      {"measurement": "Score+SE", "setting": "[3]; 3.0 mg/kg i.p.", "value": "6.4±0.5"},
      {"measurement": "% of control", "setting": "[3]; 5.0 mg/kg i.p.", "value": 73, "unit": "%"},
      {"measurement": "Score+SE", "setting": "[3]; 5.0 mg/kg i.p.", "value": "8.7±0.9"},
      {"measurement": "Score+SE", "setting": "[3]; 10 mg/kg i.p.", "value": "11.3±0.3"},
      {"measurement": "% of control", "setting": "[3]; 10 mg/kg i.p., listed as [R] (+)PAI Mesylate, mesylate", "value": 94, "unit": "%"},
      {"measurement": "% of control", "setting": "[3]; 10 mg/kg i.p., listed as [R] (+)PAI mesylate, mesylate", "value": "≈ 94%"},
      {"measurement": "% of control", "setting": "[3]; 15 mg/kg i.p.", "value": 90, "unit": "%"},
      {"measurement": "Score+SE", "setting": "[3]; 15 mg/kg i.p.", "value": "10.8±0.5"},
      {"measurement": "Score+SE", "setting": "[3]; […] i.p. (free base), 2 h before haloperidol 6mg/kg s.c., max score 12", "value": "7.2±1"},
      {"measurement": "% H2O in the brain", "setting": "[4]", "value": "82.1 ± 0.6", "unit": "%"},
      {"measurement": "injury-induced reduction in energy production (NADH response to anoxia)", "setting": "[5]; 2 mg/kg i.p. immediately after injury", "value": "blocked the injury-induced reduction in energy production"},
      {"measurement": "CAP amplitude (Mean ± Std. Error.)", "setting": "[5]; single injection 0.5 mg/kg immediately after injury, 14 days later", "value": "2104 ± 313", "unit": "µV"},
      {"measurement": "NSS 1 h", "setting": "[6]", "value": 16.7},
      {"measurement": "NSS 24 h", "setting": "[6]", "value": 10.2},
      {"measurement": "Δ NSS (1h - 24h)", "setting": "[6]", "value": "6.5 ± 0.7"},
      {"measurement": "Score (total motor activity, 10 hours)", "setting": "[7]; 2 mg/kg i.p., 2 h before α-MpT 100 mg/kg i.p., SE in the line below", "value": "14,132**"},
      {"measurement": "% of control", "setting": "[7]; 2 mg/kg i.p., relative to saline control, listed as [R] (+)PAI Mesylate, mesylate", "value": 89, "unit": "%"},
      {"measurement": "% of control", "setting": "[7]; 2 mg/kg i.p., relative to saline control, mesylate", "value": "about 90%"},
      {"measurement": "% of control", "setting": "[7]; 5 mg/kg i.p.", "value": 81, "unit": "%"},
      {"measurement": "Score (total motor activity, 10 hours)", "setting": "[7]; 5 mg/kg i.p.", "value": "12,893*"},
      {"measurement": "acute neurotoxicity", "setting": "[8]", "value": "did not show any neurotoxicity"}
    ]}
  ]
}
